Data: ChEMBL document CHEMBL3576856, “Membrane-Targeting DCAP Analogues with Broad-Spectrum Antibiotic Activity against Pathogenic Bacteria” (2015)
≈ marks a conversion by molar mass, not a printed value. Calls of active or inactive are those of the source. No cut-off for these calls is given here.

Legend:
Escherichia coli [1] = test: Antimicrobial activity against Escherichia coli BW25113 expressing delta-tolC gene incubated for 16 to 18 hrs by macrodilution method; type: functional
Escherichia coli [2] = test: Antimicrobial activity against Escherichia coli BW25113 incubated for 16 to 18 hrs by macrodilution method; type: functional
Vibrio cholerae = test: Antimicrobial activity against Vibrio cholerae incubated for 16 to 18 hrs by macrodilution method; type: functional
Salmonella typhimurium = test: Antimicrobial activity against Salmonella typhimurium incubated for 16 to 18 hrs by macrodilution method; type: functional, Salmonella enterica subsp. enterica serovar Typhimurium; details: Salmonella enterica
Shigella boydii = test: Antimicrobial activity against Shigella boydii incubated for 16 to 18 hrs by macrodilution method; type: functional
Edwardsiella tarda = test: Antimicrobial activity against Edwardsiella tarda incubated for 16 to 18 hrs by macrodilution method; type: functional
Klebsiella pneumoniae = test: Antimicrobial activity against Klebsiella pneumoniae incubated for 16 to 18 hrs by macrodilution method; type: functional
Klebsiella aerogenes = test: Antimicrobial activity against Enterobacter aerogenes incubated for 16 to 18 hrs by macrodilution method; type: functional
Acinetobacter baumannii = test: Antimicrobial activity against Acinetobacter baumannii incubated for 16 to 18 hrs by macrodilution method; type: functional
Morganella morganii = test: Antimicrobial activity against Morganella morganii incubated for 16 to 18 hrs by macrodilution method; type: functional
Staphylococcus aureus [3] = test: Antimicrobial activity against Staphylococcus aureus Newman incubated for 16 to 18 hrs by macrodilution method; type: functional
Francisella tularensis = test: Antimicrobial activity against Francisella tularensis incubated for 16 to 18 hrs by macrodilution method; type: functional
Bacillus anthracis = test: Antimicrobial activity against Bacillus anthracis incubated for 16 to 18 hrs by macrodilution method; type: functional
Burkholderia mallei = test: Antimicrobial activity against Burkholderia mallei incubated for 16 to 18 hrs by macrodilution method; type: functional
Yersinia pestis = test: Antimicrobial activity against Yersinia pestis incubated for 16 to 18 hrs by macrodilution method; type: functional
[4] = test system: Burkholderia pseudomallei; test: Antimicrobial activity against Burkholderia pseudomallei incubated for 16 to 18 hrs by macrodilution method; type: functional
Escherichia coli [5] = test: Antimicrobial activity against Escherichia coli MG1655 incubated at 37 degC overnight for 18 hrs; type: functional; details: MG1655, 18 h
Staphylococcus aureus [6] = test: Antimicrobial activity against Staphylococcus aureus incubated at 37 degC overnight for 18 hrs; type: functional
Escherichia coli [7] = test: Antimicrobial activity against Escherichia coli MG1655 at 2.5 to 80 uM incubated at 37 degC overnight for 18 hrs in presence of ampicillin by checkerboard assay; type: functional, organism-based
Escherichia coli [8] = test: Synergistic potentiation of ampicillin-induced antimicrobial effect against Escherichia coli MG1655 at 2.5 to 80 uM incubated at 37 degC overnight for 18 hrs in presence of >4 uM ampicillin by checkerboard assay; type: functional, organism-based
Staphylococcus aureus [9] = test: Synergistic potentiation of ampicillin-induced antimicrobial effect against Staphylococcus aureus at 2.5 to 80 uM incubated at 37 degC overnight for 18 hrs in presence of >4 uM ampicillin by checkerboard assay; type: functional, organism-based
Escherichia coli [10] = test: Synergistic potentiation of kanamycin-induced antimicrobial effect against Escherichia coli MG1655 at 2.5 to 80 uM incubated at 37 degC overnight for 18 hrs in presence of >4 uM kanamycin by checkerboard assay; type: functional, organism-based
Staphylococcus aureus [11] = test: Potentiation of kanamycin-induced antimicrobial effect against Staphylococcus aureus at 2.5 to 80 uM incubated at 37 degC overnight for 18 hrs in presence of kanamycin by checkerboard assay; type: functional, organism-based
Escherichia coli [12] = test: Potentiation of novobiocin-induced antimicrobial effect against Escherichia coli MG1655 at 2.5 to 80 uM incubated at 37 degC overnight for 18 hrs in presence of novobiocin by checkerboard assay; type: functional, organism-based

For OCC(CO)(CO)NCC(O)Cn1c2ccccc2c2ccccc21 (stereo not drawn), the MIC (Escherichia coli [1]) was > 80 µM and the MIC (Escherichia coli [2]) was > 320 µM.

Compound OC(CNC1CCCCC1)Cn1c2ccc(Cl)cc2c2cc(Cl)ccc21 (stereo not drawn) has an MIC (Escherichia coli [1]) of 2.5 µM (≈ 0.978 µg/mL), an MIC (Escherichia coli [2]) of 40 µM (≈ 15.7 µg/mL) and an MIC (Vibrio cholerae) of 6.25 µM (≈ 2.45 µg/mL). The MIC (Salmonella typhimurium) was 100 µM (≈ 39.1 µg/mL), the MIC (Shigella boydii) was 50 µM (≈ 19.6 µg/mL) and the MIC (Edwardsiella tarda) was 50 µM (≈ 19.6 µg/mL). For the same compound, the MIC (Klebsiella pneumoniae) was > 200 µM, the MIC (Klebsiella aerogenes) was > 200 µM and the MIC (Acinetobacter baumannii) was 25 µM (≈ 9.78 µg/mL). The MIC (Morganella morganii) was > 200 µM, the MIC (Staphylococcus aureus [3]) was 5 µM (≈ 1.96 µg/mL) and the MIC50 (Francisella tularensis) was 2.5 µM (≈ 0.978 µg/mL). The MIC90 (Francisella tularensis) was 10 µM (≈ 3.91 µg/mL), the MIC50 (Bacillus anthracis) was 5 µM (≈ 1.96 µg/mL) and the MIC90 (Bacillus anthracis) was 10 µM (≈ 3.91 µg/mL). For the same compound, the MIC50 (Burkholderia mallei) was 21 µM (≈ 8.22 µg/mL), the MIC90 (Burkholderia mallei) was 82 µM (≈ 32.1 µg/mL) and the MIC50 (Yersinia pestis) was 41 µM (≈ 16 µg/mL). For the same compound, the MIC90 (Yersinia pestis) was 82 µM (≈ 32.1 µg/mL), the MIC50 [4] was 164 µM (≈ 64.2 µg/mL) and the MIC90 [4] was ≥ 164 µM.

With CCC(CO)(CO)NCC(O)Cn1c2ccc(Cl)cc2c2cc(Cl)ccc21 (stereo not drawn) the MIC (Escherichia coli [1]) was 20 µM (≈ 8.23 µg/mL) and the MIC (Escherichia coli [2]) was 160 µM (≈ 65.8 µg/mL).

CO[C@@H]1[C@@H](OC(N)=O)[C@@H](O)[C@H](Oc2ccc3c(O)c(NC(=O)c4ccc(O)c(CC=C(C)C)c4)c(=O)oc3c2C)OC1(C)C [NOVOBIOCIN] showed an MIC (Escherichia coli [1]) of 1.2 µM (≈ 0.735 µg/mL) and an MIC (Escherichia coli [5]) of 320 µM (≈ 196 µg/mL).

With CC(CO)(CO)NCC(O)Cn1c2ccc(Cl)cc2c2cc(Cl)ccc21 (stereo not drawn) the MIC (Escherichia coli [1]) was 40 µM (≈ 15.9 µg/mL) and the MIC (Escherichia coli [2]) was 80 µM (≈ 31.8 µg/mL).

OCC(CO)NCC(O)Cn1c2ccc(Cl)cc2c2cc(Cl)ccc21 (stereo not drawn) was tested, and the MIC (Escherichia coli [1]) was 20 µM (≈ 7.67 µg/mL) and the MIC (Escherichia coli [2]) was 40 µM (≈ 15.3 µg/mL).

OCC(CO)(CO)NC[C@H](O)Cn1c2ccc(Cl)cc2c2cc(Cl)ccc21 gave an MIC (Escherichia coli [1]) of 20 µM (≈ 8.27 µg/mL), an MIC (Escherichia coli [2]) of 80 µM (≈ 33.1 µg/mL) and an MIC50 (Francisella tularensis) of 85 µM (≈ 35.1 µg/mL). For the same compound, the MIC90 (Francisella tularensis) was 170 µM (≈ 70.3 µg/mL), the MIC50 (Bacillus anthracis) was 42 µM (≈ 17.4 µg/mL) and the MIC90 (Bacillus anthracis) was 42 µM (≈ 17.4 µg/mL). The MIC50 (Burkholderia mallei) was ≥ 170 µM, the MIC90 (Burkholderia mallei) was ≥ 170 µM and the MIC50 (Yersinia pestis) was ≥ 170 µM. For the same compound, the MIC90 (Yersinia pestis) was ≥ 170 µM, the MIC50 [4] was ≥ 170 µM and the MIC90 [4] was ≥ 170 µM.

With CC(C)CCNCCCn1c2ccc(Cl)cc2c2cc(Cl)ccc21 the MIC (Escherichia coli [1]) was 5 µM (≈ 1.82 µg/mL) and the MIC (Escherichia coli [2]) was 80 µM (≈ 29.1 µg/mL).

NC[C@H]1O[C@H](O[C@H]2[C@H](O)[C@@H](O[C@H]3O[C@H](CO)[C@@H](O)[C@H](N)[C@H]3O)[C@H](N)C[C@@H]2N)[C@H](O)[C@@H](O)[C@@H]1O [KANAMYCIN] was tested, and the MIC (Escherichia coli [5]) was 10 µM (≈ 4.85 µg/mL) and the MIC (Staphylococcus aureus [6]) was 2.5 µM (≈ 1.21 µg/mL).

CC(C)(C)NCC(O)Cn1c2ccc(Cl)cc2c2cc(Cl)ccc21 (stereo not drawn) gave an MIC (Escherichia coli [1]) of 40 µM (≈ 14.6 µg/mL) and an MIC (Escherichia coli [2]) of 160 µM (≈ 58.4 µg/mL).

OCC(CO)(CO)NC[C@@H](O)Cn1c2ccc(Cl)cc2c2cc(Cl)ccc21 gave an MIC (Escherichia coli [1]) of 20 µM (≈ 8.27 µg/mL) and an MIC (Escherichia coli [2]) of 80 µM (≈ 33.1 µg/mL).

Compound CCC(CC)NCC(O)Cn1c2ccc(Cl)cc2c2cc(Cl)ccc21 (stereo not drawn) has an MIC (Escherichia coli [1]) of 5 µM (≈ 1.9 µg/mL) and an MIC (Escherichia coli [2]) of 80 µM (≈ 30.3 µg/mL).

For CC(C)CCNCC(O)Cn1c2ccc(Cl)cc2c2cc(Cl)ccc21 (stereo not drawn), the MIC (Escherichia coli [1]) was 2.5 µM (≈ 0.948 µg/mL), the MIC (Escherichia coli [2]) was 40 µM (≈ 15.2 µg/mL) and the MIC (Vibrio cholerae) was 6.25 µM (≈ 2.37 µg/mL). The MIC (Salmonella typhimurium) was 50 µM (≈ 19 µg/mL), the MIC (Shigella boydii) was 25 µM (≈ 9.48 µg/mL) and the MIC (Edwardsiella tarda) was 25 µM (≈ 9.48 µg/mL). For the same compound, the MIC (Klebsiella pneumoniae) was 50 µM (≈ 19 µg/mL), the MIC (Klebsiella aerogenes) was 50 µM (≈ 19 µg/mL) and the MIC (Acinetobacter baumannii) was 12.5 µM (≈ 4.74 µg/mL). The MIC (Morganella morganii) was 50 µM (≈ 19 µg/mL), the MIC (Staphylococcus aureus [3]) was 5 µM (≈ 1.9 µg/mL) and the MIC50 (Francisella tularensis) was 5 µM (≈ 1.9 µg/mL). For the same compound, the MIC90 (Francisella tularensis) was 10 µM (≈ 3.79 µg/mL), the MIC50 (Bacillus anthracis) was 5 µM (≈ 1.9 µg/mL) and the MIC90 (Bacillus anthracis) was 5 µM (≈ 1.9 µg/mL). It also gave an MIC50 (Burkholderia mallei) of 21 µM (≈ 7.97 µg/mL), an MIC90 (Burkholderia mallei) of 42 µM (≈ 15.9 µg/mL) and an MIC50 (Yersinia pestis) of 21 µM (≈ 7.97 µg/mL). For the same compound, the MIC90 (Yersinia pestis) was 42 µM (≈ 15.9 µg/mL), the MIC50 [4] was 170 µM (≈ 64.5 µg/mL) and the MIC90 [4] was ≥ 170 µM. The Activity (Escherichia coli [7]) was “Active”, the Activity (Escherichia coli [8]) was “Active” and the Activity (Staphylococcus aureus [9]) was “Active”. For the same compound, the Activity (Escherichia coli [10]) was “Active”, the Activity (Staphylococcus aureus [11]) was “inactive” and the Activity (Escherichia coli [12]) was “inactive”.

Work on CCC(CC)CNCC(O)Cn1c2ccc(Cl)cc2c2cc(Cl)ccc21 (stereo not drawn) yielded an MIC (Escherichia coli [1]) of 2.5 µM (≈ 0.983 µg/mL), an MIC (Escherichia coli [2]) of 80 µM (≈ 31.5 µg/mL) and an MIC (Vibrio cholerae) of 6.25 µM (≈ 2.46 µg/mL). It also gave an MIC (Salmonella typhimurium) of 200 µM (≈ 78.7 µg/mL), an MIC (Shigella boydii) of 25 µM (≈ 9.83 µg/mL) and an MIC (Edwardsiella tarda) of 12.5 µM (≈ 4.92 µg/mL). The MIC (Klebsiella pneumoniae) was > 200 µM, the MIC (Klebsiella aerogenes) was > 200 µM and the MIC (Acinetobacter baumannii) was 25 µM (≈ 9.83 µg/mL). For the same compound, the MIC (Morganella morganii) was > 200 µM and the MIC (Staphylococcus aureus [3]) was 5 µM (≈ 1.97 µg/mL).

In the case of CC1(C)S[C@@H]2[C@H](NC(=O)[C@H](N)c3ccccc3)C(=O)N2[C@H]1C(=O)O [AMPICILLIN], the MIC (Escherichia coli [5]) was 10 µM (≈ 3.49 µg/mL) and the MIC (Staphylococcus aureus [6]) was 1 µM (≈ 0.349 µg/mL).

OCC(CO)(CO)NCC(O)Cn1ccc2cc(Cl)ccc21 (stereo not drawn) was tested, and the MIC (Escherichia coli [1]) was 320 µM (≈ 105 µg/mL) and the MIC (Escherichia coli [2]) was > 320 µM.

Compound OCC(CO)(CO)NCC(O)Cn1c2ccc(Cl)cc2c2cc(Cl)ccc21 (racemic) has an MIC (Escherichia coli [1]) of 20 µM (≈ 8.27 µg/mL), an MIC (Escherichia coli [2]) of 80 µM (≈ 33.1 µg/mL) and an MIC (Vibrio cholerae) of 50 µM (≈ 20.7 µg/mL). The MIC (Salmonella typhimurium) was 100 µM (≈ 41.3 µg/mL), the MIC (Shigella boydii) was 100 µM (≈ 41.3 µg/mL) and the MIC (Edwardsiella tarda) was 100 µM (≈ 41.3 µg/mL). It also gave an MIC (Klebsiella pneumoniae) of 200 µM (≈ 82.7 µg/mL), an MIC (Klebsiella aerogenes) of 200 µM (≈ 82.7 µg/mL) and an MIC (Acinetobacter baumannii) of 200 µM (≈ 82.7 µg/mL). For the same compound, the MIC (Morganella morganii) was 200 µM (≈ 82.7 µg/mL) and the MIC (Staphylococcus aureus [3]) was 40 µM (≈ 16.5 µg/mL).

Work on CCCCCNCC(O)Cn1c2ccc(Cl)cc2c2cc(Cl)ccc21 (stereo not drawn) yielded an MIC (Escherichia coli [1]) of 5 µM (≈ 1.9 µg/mL) and an MIC (Escherichia coli [2]) of 80 µM (≈ 30.3 µg/mL).
